Experimental data published in patent US20080194585A1, “Fungicidal Pyrazine Derivatives” (priority 2005, published 2008).
Marks after values point to notes of the source that are not given here.

Legend:
[1] = test system: Sclerotinia sclerotiorum; experiment: Test C: cucumber white mold, preventive spray on cucumber seedlings
[2] = test system: Septoria tritici; experiment: Test J: wheat leaf blotch, preventive spray on wheat seedlings; format: in vivo
From the text: A dash (-) indicates no test results.

[3] = test system: Colletotrichum orbiculare; experiment: Test B: cucumber Colletotrichum anthracnose, preventive spray on cucumber seedlings
[4] = test system: Pythium aphanidermatum; experiment: Test A: bluegrass pythium blight, preventive spray on bluegrass seedlings
[5] = test system: Phytophthora infestans; experiment: whole plant or invertebrate; format: in vivo
[6] = test system: Puccinia recondita f. sp. tritici; experiment: Test K: wheat leaf rust, preventive spray on wheat seedlings
[7] = test system: Plasmopara viticola; experiment: Test D: grape downy mildew, spray after inoculation of grape seedlings; format: in vivo
From the text: Upon removal, disease ratings were made. […] A dash (-) indicates no test results.

[8] = test system: Rhizoctonia oryzae; experiment: Test G: turf brown patch, preventive spray on creeping bent grass seedlings
Description: (the causal agent of turf brown patch) and incubated in a saturated atmosphere at 27° C. for 24 h, and then moved to a growth chamber at 27° C. for 5 days, after which disease ratings were made.

[9] = test system: Septoria nodorum; experiment: Test H: wheat glum blotch, preventive spray on wheat seedlings
Description: (the causal agent of wheat glum blotch) and incubated in a saturated atmosphere at 20° C. for 48 h, and then moved to a growth chamber at 22° C. for 5 days, after which disease ratings were made.

[10] = test system: Erysiphe graminis f. sp. tritici; experiment: Test L: wheat powdery mildew, preventive spray on wheat seedlings
[11] = test system: Botrytis cinerea; experiment: Test E: tomato botrytis, preventive spray on tomato seedlings

Structure (SMILES)	Test C disease control rating ([1]; 40 ppm (*))	Test J disease control rating ([2]; 40 ppm (*))	Test B disease control rating ([3]; 40 ppm (*))	Test A disease control rating ([4]; 40 ppm (*))	Test F disease control rating ([5]; 40 ppm (*))	Test K disease control rating ([6]; 40 ppm (*))	Test D disease control rating ([7]; 40 ppm (*))	Test G disease control rating ([8]; 40 ppm (*))	Test H disease control rating ([9]; 40 ppm (*))	Test L disease control rating ([10]; 40 ppm (*))	Test E disease control rating ([11]; 40 ppm (*))	also measured
Cc1cccc(C)c1-c1c(Cl)nc(-n2cncn2)c(=O)n1CC(C)C [compound 205]												Test C disease control rating ([1]; 200 ppm): 0%; Test J disease control rating ([2]; 200 ppm): 100%; Test B disease control rating ([3]; 200 ppm): 0%; Test A disease control rating ([4]; 200 ppm): 0%; Test F disease control rating ([5]; 200 ppm): 0%; Test K disease control rating ([6]; 200 ppm): 97%; Test D disease control rating ([7]; 200 ppm): 12%; Test G disease control rating ([8]; 200 ppm): 85%; Test H disease control rating ([9]; 200 ppm): 0%; Test L disease control rating ([10]; 200 ppm): 81%; Test E disease control rating ([11]; 200 ppm): 100%
CC(C)Cn1c(C(C)(C)C)c(Cl)nc(-n2cncn2)c1=O [compound 206]												Test C disease control rating ([1]; 200 ppm): 0%; Test J disease control rating ([2]; 200 ppm): 3%; Test B disease control rating ([3]; 200 ppm): 0%; Test A disease control rating ([4]; 200 ppm): 0%; Test F disease control rating ([5]; 200 ppm): 0%; Test K disease control rating ([6]; 200 ppm): 0%; Test D disease control rating ([7]; 200 ppm): 8%; Test G disease control rating ([8]; 200 ppm): 0%; Test H disease control rating ([9]; 200 ppm): 0%; Test L disease control rating ([10]; 200 ppm): 56%; Test E disease control rating ([11]; 200 ppm): 0%
CC(C)Cn1c(C(C)C)c(Cl)nc(-n2cncn2)c1=O [compound 207]												Test C disease control rating ([1]; 200 ppm): 0%; Test J disease control rating ([2]; 200 ppm): 70%; Test B disease control rating ([3]; 200 ppm): 0%; Test A disease control rating ([4]; 200 ppm): 0%; Test F disease control rating ([5]; 200 ppm): 0%; Test K disease control rating ([6]; 200 ppm): 0%; Test D disease control rating ([7]; 200 ppm): 8%; Test G disease control rating ([8]; 200 ppm): 47%; Test H disease control rating ([9]; 200 ppm): 0%; Test L disease control rating ([10]; 200 ppm): 95%; Test E disease control rating ([11]; 200 ppm): 50%
Cc1ccnc(-c2nc(Cl)c(-c3c(F)cccc3F)n(CC(C)C)c2=O)c1 [compound 208]												Test C disease control rating ([1]; 200 ppm): 0%; Test J disease control rating ([2]; 200 ppm): 100%; Test B disease control rating ([3]; 200 ppm): 46%; Test A disease control rating ([4]; 200 ppm): 0%; Test F disease control rating ([5]; 200 ppm): 0%; Test K disease control rating ([6]; 200 ppm): 88%; Test D disease control rating ([7]; 200 ppm): 12%; Test G disease control rating ([8]; 200 ppm): 0%; Test H disease control rating ([9]; 200 ppm): 69%; Test L disease control rating ([10]; 200 ppm): 0%; Test E disease control rating ([11]; 200 ppm): 92%
Cc1cccnc1-c1nc(Cl)c(-c2c(F)cccc2F)n(CC(C)C)c1=O [compound 210]												Test C disease control rating ([1]; 200 ppm): 0%; Test J disease control rating ([2]; 200 ppm): 1%; Test B disease control rating ([3]; 200 ppm): 0%; Test A disease control rating ([4]; 200 ppm): 0%; Test F disease control rating ([5]; 200 ppm): 0%; Test K disease control rating ([6]; 200 ppm): 0%; Test D disease control rating ([7]; 200 ppm): 16%; Test G disease control rating ([8]; 200 ppm): 0%; Test H disease control rating ([9]; 200 ppm): 0%; Test L disease control rating ([10]; 200 ppm): 0%; Test E disease control rating ([11]; 200 ppm): 0%
COC=C(C)n1c(-c2c(F)cccc2F)c(Cl)nc(-n2cccn2)c1=O [compound 211]	0* %	25* %	0* %	0* %	0* %	27* %	4* %	0* %	0* %	0* %	0* %	
COC=C(C)n1c(-c2c(F)cccc2F)c(Cl)nc(-n2cncn2)c1=O [compound 212]	0* %	0* %	0* %	0* %	0* %	0* %	8* %	0* %	0* %	0* %	0* %	
CC(CO)n1c(-c2c(F)cccc2F)c(Cl)nc(-n2cccn2)c1=O (stereo not drawn) [compound 213]	0* %	0* %	0* %	0* %	0* %	92* %	32* %	0* %	0* %	0* %	41* %	
CC(CCl)n1c(-c2c(F)cccc2F)c(Cl)nc(-n2cncn2)c1=O (stereo not drawn) [compound 214]	0* %	9* %	0* %	0* %	0* %	69* %	12* %	0* %	0* %	0* %	0* %	
CC(C)Cn1c(-c2c(F)cccc2F)c(Cl)nc(-n2ccnn2)c1=O [compound 215]	0* %	0* %	0* %	0* %	0* %	55* %	29* %	0* %	0* %	0* %	99* %	
CCC(C)Cn1c(-c2ccc(F)cc2Cl)c(Cl)nc(N2CCC=N2)c1=O (stereo not drawn) [compound 216]	0* %	97* %	53* %	0* %	0* %	94* %	0* %	0* %	89* %	94* %	100* %	
CCC(C)Cn1c(-c2ccc(F)cc2Cl)c(Cl)nc(N2CCC(=O)N2)c1=O (stereo not drawn) [compound 217]	90* %	96* %	0* %	0* %	0* %	86* %	0* %	0* %	86* %	62* %	100* %	
CC[C@H](C)Cn1c(-c2c(F)cc(F)cc2F)c(Cl)nc(N2CCC=N2)c1=O [compound 218]	99* %	100* %	99* %	0* %	0* %	100* %	29* %	43* %	100* %	100* %	100* %	
CC[C@H](C)Cn1c(-c2c(F)cc(F)cc2F)c(Cl)nc(-n2ccc(C)n2)c1=O [compound 219]	70* %	100* %	100* %	0* %	0* %	100* %	36* %	99* %	100* %	100* %	100* %	
N#Cc1nc(Cl)c(-c2c(F)cccc2F)n(Cc2ccc(Cl)cc2)c1=O [compound 220]	0* %	25* %	0* %	0* %	0* %	0* %	0* %	0* %	0* %	0* %	0* %	
O=c1c(-n2cccn2)nc(Cl)c(-c2c(F)cccc2F)n1Cc1ccc(Cl)cc1 [compound 221]	0* %	100* %	0* %	0* %	0* %	89* %	0* %	16* %	98* %	0* %	99* %	
O=c1c(-n2cncn2)nc(Cl)c(-c2c(F)cccc2F)n1Cc1ccc(Cl)cc1 [compound 222]	0* %	86* %	0* %	0* %	0* %	79* %	0* %	0* %	60* %	0* %	92* %	
CC1CCCCC1n1c(-c2c(F)cccc2F)c(Cl)nc(C#N)c1=O (stereo not drawn) [compound 223]	0* %	17* %	0* %	0* %	0* %	0* %	0* %	0* %	0* %	51* %	0* %	
